Data: US10501489B2, “C17-alkanediyl and alkenediyl derivatives of oleanolic acid and methods of use thereof” (REATA PHARMACEUTICALS, INC., priority 2012, dated 2019)

Test system: RAW264.7 mouse macrophages
Assay: Suppression of IFNγ-induced NO production (nitric oxide production and cell viability assay)
Type: cell-based
Details: RAW264.7 cells, drug pre-treatment 2 hours, then recombinant mouse IFNγ 24 hours; Griess reagent; normalized to cell viability (WST-1)
Method: Assay results for the suppression of IFNγ-induced NO production are shown for several of the compounds of the present invention in Table 1 below. […] Details regarding this assay are provided in the Examples section below. Nitric Oxide Production and Cell Viability Assay. […] On the next day, cells were pre-treated with DMSO or drug (O-200 nM dose range) for 2 hours, and then treated with recombinant mouse IFNγ (R&D Systems) for 24 hours. Nitric Oxide concentration in media was determined using the Griess reagent system (Promega). Cell viability was determined using WST-1 reagent (Roche). IC50 values were determined based on the suppression of IFNγ induced Nitric Oxide production normalized to cell viability.

SMILES	IC50
CC1(C)CC[C@]2(CCC(=O)OC3CCNCC3)CC[C@]3(C)[C@H](C(=O)C=C4[C@@]5(C)C=C(C#N)C(=O)C(C)(C)[C@@H]5CC[C@]43C)[C@@H]2C1 [TX64055]	1.7 nM
CC1(C)CC[C@]2(CCC(N)=O)CC[C@]3(C)[C@H](C(=O)C=C4[C@@]5(C)C=C(C#N)C(=O)C(C)(C)[C@@H]5CC[C@]43C)[C@@H]2C1 [TX64074]	0.3 nM
CC(C)OC(=O)CC[C@]12CCC(C)(C)C[C@H]1[C@H]1C(=O)C=C3[C@@]4(C)C=C(C#N)C(=O)C(C)(C)[C@@H]4CC[C@@]3(C)[C@]1(C)CC2 [TX64043]	21 nM
CC1(C)CC[C@]2(CCC(=O)N3CCOCC3)CC[C@]3(C)[C@H](C(=O)C=C4[C@@]5(C)C=C(C#N)C(=O)C(C)(C)[C@@H]5CC[C@]43C)[C@@H]2C1 [TX63763]	0.4 nM
CC1(C)CC[C@]2(CCC(=O)NC3CCCCC3)CC[C@]3(C)[C@H](C(=O)C=C4[C@@]5(C)C=C(C#N)C(=O)C(C)(C)[C@@H]5CC[C@]43C)[C@@H]2C1 [TX64057]	0.8 nM
CC1(C)CC[C@]2(CCC(=O)Nc3ccccc3)CC[C@]3(C)[C@H](C(=O)C=C4[C@@]5(C)C=C(C#N)C(=O)C(C)(C)[C@@H]5CC[C@]43C)[C@@H]2C1 [TX64059]	1.4 nM
CCNC(=O)OCC[C@]12CCC(C)(C)C[C@H]1[C@H]1C(=O)C=C3[C@@]4(C)C=C(C#N)C(=O)C(C)(C)[C@@H]4CC[C@@]3(C)[C@]1(C)CC2 [TX63981]	3 nM
COC(=O)CNC(=O)CC[C@]12CCC(C)(C)C[C@H]1[C@H]1C(=O)C=C3[C@@]4(C)C=C(C#N)C(=O)C(C)(C)[C@@H]4CC[C@@]3(C)[C@]1(C)CC2 [TX64052]	2 nM
CC1(C)CC[C@]2(CCC(=O)NCC(=O)O)CC[C@]3(C)[C@H](C(=O)C=C4[C@@]5(C)C=C(C#N)C(=O)C(C)(C)[C@@H]5CC[C@]43C)[C@@H]2C1 [TX64054]	97 nM
CC1(C)CC[C@]2(CCC(=O)Nc3ccccn3)CC[C@]3(C)[C@H](C(=O)C=C4[C@@]5(C)C=C(C#N)C(=O)C(C)(C)[C@@H]5CC[C@]43C)[C@@H]2C1 [TX64068]	1.1 nM
CCNC(=O)OCCC[C@]12CCC(C)(C)C[C@H]1[C@H]1C(=O)C=C3[C@@]4(C)C=C(C#N)C(=O)C(C)(C)[C@@H]4CC[C@@]3(C)[C@]1(C)CC2 [TX63983]	5.4 nM
CCOC(=O)CC[C@]12CCC(C)(C)C[C@H]1[C@H]1C(=O)C=C3[C@@]4(C)C=C(C#N)C(=O)C(C)(C)[C@@H]4CC[C@@]3(C)[C@]1(C)CC2 [TX64042]	10 nM
CC1(C)CC[C@]2(COC(=O)N3CCCC3)CC[C@]3(C)[C@H](C(=O)C=C4[C@@]5(C)C=C(C#N)C(=O)C(C)(C)[C@@H]5CC[C@]43C)[C@@H]2C1 [TX63927]	1.3 nM
CNC(=O)CC[C@]12CCC(C)(C)C[C@H]1[C@H]1C(=O)C=C3[C@@]4(C)C=C(C#N)C(=O)C(C)(C)[C@@H]4CC[C@@]3(C)[C@]1(C)CC2 [TX63770]	0.2 nM
COCC[C@]12CCC(C)(C)C[C@H]1[C@H]1C(=O)C=C3[C@@]4(C)C=C(C#N)C(=O)C(C)(C)[C@@H]4CC[C@@]3(C)[C@]1(C)CC2 [TX63609]	2.9 nM
COC(=O)CC[C@]12CCC(C)(C)C[C@H]1[C@H]1C(=O)C=C3[C@@]4(C)C=C(C#N)C(=O)C(C)(C)[C@@H]4CC[C@@]3(C)[C@]1(C)CC2 [TX63742]	2 nM
CC1(C)CC[C@]2(COC(=O)n3ccnc3)CC[C@]3(C)[C@H](C(=O)C=C4[C@@]5(C)C=C(C#N)C(=O)C(C)(C)[C@@H]5CC[C@]43C)[C@@H]2C1 [TX63868]	0.7 nM
CC1(C)CC[C@]2(CCC(=O)OC(C)(C)C)CC[C@]3(C)[C@H](C(=O)C=C4[C@@]5(C)C=C(C#N)C(=O)C(C)(C)[C@@H]5CC[C@]43C)[C@@H]2C1 [TX64067]	14 nM
CC(=O)NNC(=O)CC[C@]12CCC(C)(C)C[C@H]1[C@H]1C(=O)C=C3[C@@]4(C)C=C(C#N)C(=O)C(C)(C)[C@@H]4CC[C@@]3(C)[C@]1(C)CC2 [TX64045]	5.6 nM
CC1(C)CC[C@]2(CCC(=O)NC3COC3)CC[C@]3(C)[C@H](C(=O)C=C4[C@@]5(C)C=C(C#N)C(=O)C(C)(C)[C@@H]5CC[C@]43C)[C@@H]2C1 [TX64044]	1.3 nM
CC1(C)CC[C@]2(CCC(=O)OC3CCN(C(=O)OC(C)(C)C)CC3)CC[C@]3(C)[C@H](C(=O)C=C4[C@@]5(C)C=C(C#N)C(=O)C(C)(C)[C@@H]5CC[C@]43C)[C@@H]2C1 [TX64053]	37 nM
CC1(C)CC[C@]2(CCC(=O)N3CC[C@H](O)C3)CC[C@]3(C)[C@H](C(=O)C=C4[C@@]5(C)C=C(C#N)C(=O)C(C)(C)[C@@H]5CC[C@]43C)[C@@H]2C1 [TX64047]	3.3 nM
CC1(C)CC[C@]2(CCC(=O)N3CCCC3)CC[C@]3(C)[C@H](C(=O)C=C4[C@@]5(C)C=C(C#N)C(=O)C(C)(C)[C@@H]5CC[C@]43C)[C@@H]2C1 [TX63949]	0.6 nM

SMILES	IC50
CC[C@]12CCC(C)(C)C[C@H]1[C@H]1C(=O)C=C3[C@@]4(C)C=C(C#N)C(=O)C(C)(C)[C@@H]4CC[C@@]3(C)[C@]1(C)CC2 [TX63403]	8.6 nM
CONC(=O)CC[C@]12CCC(C)(C)C[C@H]1[C@H]1C(=O)C=C3[C@@]4(C)C=C(C#N)C(=O)C(C)(C)[C@@H]4CC[C@@]3(C)[C@]1(C)CC2 [TX64056]	0.3 nM
CCNC(=O)OC[C@]12CCC(C)(C)C[C@H]1[C@H]1C(=O)C=C3[C@@]4(C)C=C(C#N)C(=O)C(C)(C)[C@@H]4CC[C@@]3(C)[C@]1(C)CC2 [TX63930]	0.9 nM
CC1(C)CC[C@]2(CCC(=O)N3CCC3)CC[C@]3(C)[C@H](C(=O)C=C4[C@@]5(C)C=C(C#N)C(=O)C(C)(C)[C@@H]5CC[C@]43C)[C@@H]2C1 [TX63950]	0.4 nM
CN(C)C(=O)CC[C@]12CCC(C)(C)C[C@H]1[C@H]1C(=O)C=C3[C@@]4(C)C=C(C#N)C(=O)C(C)(C)[C@@H]4CC[C@@]3(C)[C@]1(C)CC2 [TX64060]	0.4 nM
CC1(C)CC[C@]2(CCC(=O)Oc3ccccc3)CC[C@]3(C)[C@H](C(=O)C=C4[C@@]5(C)C=C(C#N)C(=O)C(C)(C)[C@@H]5CC[C@]43C)[C@@H]2C1 [TX64046]	8.5 nM
CC1(C)CC[C@]2(CCC(=O)N3CCC(F)(F)C3)CC[C@]3(C)[C@H](C(=O)C=C4[C@@]5(C)C=C(C#N)C(=O)C(C)(C)[C@@H]5CC[C@]43C)[C@@H]2C1 [TX64049]	2 nM
CC1(C)CC[C@]2(CCC(=O)NCC(F)(F)F)CC[C@]3(C)[C@H](C(=O)C=C4[C@@]5(C)C=C(C#N)C(=O)C(C)(C)[C@@H]5CC[C@]43C)[C@@H]2C1 [TX63764]	0.7 nM
CC1(C)CC[C@]2(CCO)CC[C@]3(C)[C@H](C(=O)C=C4[C@@]5(C)C=C(C#N)C(=O)C(C)(C)[C@@H]5CC[C@]43C)[C@@H]2C1 [TX63608]	1.1 nM
CC1(C)CC[C@]2(COC(=O)N3CCOCC3)CC[C@]3(C)[C@H](C(=O)C=C4[C@@]5(C)C=C(C#N)C(=O)C(C)(C)[C@@H]5CC[C@]43C)[C@@H]2C1 [TX63926]	0.7 nM
CC1(C)CC[C@]2(CCCO)CC[C@]3(C)[C@H](C(=O)C=C4[C@@]5(C)C=C(C#N)C(=O)C(C)(C)[C@@H]5CC[C@]43C)[C@@H]2C1 [TX63744]	1.1 nM
CCNC(=O)CC[C@]12CCC(C)(C)C[C@H]1[C@H]1C(=O)C=C3[C@@]4(C)C=C(C#N)C(=O)C(C)(C)[C@@H]4CC[C@@]3(C)[C@]1(C)CC2 [TX63768]	0.3 nM
CC1(C)CC[C@]2(CCC(=O)OCc3ccccc3)CC[C@]3(C)[C@H](C(=O)C=C4[C@@]5(C)C=C(C#N)C(=O)C(C)(C)[C@@H]5CC[C@]43C)[C@@H]2C1 [TX64066]	20 nM
COC(=O)/C=C/[C@]12CCC(C)(C)C[C@H]1[C@H]1C(=O)C=C3[C@@]4(C)C=C(C#N)C(=O)C(C)(C)[C@@H]4CC[C@@]3(C)[C@]1(C)CC2 [TX63743]	3.2 nM
CC1(C)CC[C@]2(CCC(=O)NC(C)(C)C)CC[C@]3(C)[C@H](C(=O)C=C4[C@@]5(C)C=C(C#N)C(=O)C(C)(C)[C@@H]5CC[C@]43C)[C@@H]2C1 [TX64065]	0.6 nM
CC1(C)CC[C@]2(CCC(=O)N3CCC(O)CC3)CC[C@]3(C)[C@H](C(=O)C=C4[C@@]5(C)C=C(C#N)C(=O)C(C)(C)[C@@H]5CC[C@]43C)[C@@H]2C1 [TX64048]	1.2 nM
CC1(C)CC[C@]2(CCC(=O)N3CCN(C(=O)OC(C)(C)C)CC3)CC[C@]3(C)[C@H](C(=O)C=C4[C@@]5(C)C=C(C#N)C(=O)C(C)(C)[C@@H]5CC[C@]43C)[C@@H]2C1 [TX64124]	3.4 nM
CC1(C)CC[C@]2(CCC(=O)N3CCNCC3)CC[C@]3(C)[C@H](C(=O)C=C4[C@@]5(C)C=C(C#N)C(=O)C(C)(C)[C@@H]5CC[C@]43C)[C@@H]2C1 [TX64135]	1.5 nM
CC(=O)OCC[C@]12CCC(C)(C)C[C@H]1[C@H]1C(=O)C=C3[C@@]4(C)C=C(C#N)C(=O)C(C)(C)[C@@H]4CC[C@@]3(C)[C@]1(C)CC2 [TX63610]	2.2 nM
CC1(C)CC[C@]2(CCC(=O)OC3CCCCC3)CC[C@]3(C)[C@H](C(=O)C=C4[C@@]5(C)C=C(C#N)C(=O)C(C)(C)[C@@H]5CC[C@]43C)[C@@H]2C1 [TX64058]	29 nM
CC(C)NC(=O)CC[C@]12CCC(C)(C)C[C@H]1[C@H]1C(=O)C=C3[C@@]4(C)C=C(C#N)C(=O)C(C)(C)[C@@H]4CC[C@@]3(C)[C@]1(C)CC2 [TX64064]	0.4 nM
CC1(C)CC[C@]2(CCC(=O)O)CC[C@]3(C)[C@H](C(=O)C=C4[C@@]5(C)C=C(C#N)C(=O)C(C)(C)[C@@H]5CC[C@]43C)[C@@H]2C1 [TX63762]	1.2 nM
